Patent US8637664B2, “Alkyl 4- [4- (5-oxo-2,3,5, 11a-tetrahydo-5H-pyrrolo [2, 1-c] [1,4] benzodiazepine-8-yloxy)-butyrylamino]-1H-pyrrole-2-carboxylate derivatives and related compounds for the treatment of a proliferative disease” (Spirogen SARL, priority 2005, dated 2014)

Tests used:
[1] = tested on: calf thymus DNA (CT-DNA); assay: DNA thermal denaturation (melting) studies; assay type: binding; settings: CT-DNA 100 μM DNAp, compound 20 μM, 37 °C; for Induced ΔTm after incubation 0 hours: pH 7.00, 0 hours; for Induced ΔTm after incubation 4 hours: pH 7.00, 4 hours; for Induced ΔTm after incubation 18 hours: pH 7.00, 18 hours; for Induced ΔTm after incubation 72 hours: pH 7.00, 72 hours
Procedure: The PBD agents were subjected to DNA thermal melting (denaturation) studies (Gregson, S. J., et al., Journal of Medicinal Chemistry, 44(5), 737-748 (2001); Jones, G. B., et al., Anti-Cancer Drug Design, 5(3), 249-264 (1990); McConnaughie, A. W. and; Jenkins, T. C. Journal of Medicinal Chemistry, 38(18), 3488-3501 (1995)) using calf thymus DNA (CT-DNA, type-1, highly polymerized sodium salt; 42% G+C [Sigma]) at a fixed 100 μM (DNAp=50 μM bp) concentration, determined using an extinction coefficient of 6600 (M phosphate)^−1 cm^−1 at 260 nm (Manzini, G., et al., Nucleic Acids Research, 11(24), 8861-8876 (1983)). Solutions were prepared in pH 7.00±0.01 aqueous buffer containing 10 mM NaH2PO4/Na2HPO4 and 1 mM EDTA. Working solutions containing CT-DNA and the test compound (20 μM) were incubated at 37.0±0.1° C. for 0 to 18 hours using an external water bath. Samples were monitored at 260 nm using a Varian-Cary 400 Bio spectrophotometer fitted with a Peltier heating accessory. Heating was applied at a rate of 1° C./min in the 45 to 98° C. temperature range, with optical and temperature data sampling at 200 ms intervals. A separate experiment was carried out using buffer alone, and this baseline was subtracted from each DNA melting curve before data treatment. Optical data were imported into the Origin 5 program (MicroCal Inc., Northampton, Mass.) for analysis. DNA helix→coil transition temperatures (Tm) were determined at the midpoint of the normalized melting profiles using a published analytical procedure (Jones, G. B., et al., Anti-Cancer Drug Design, 5(3), 249-264 (1990)). Results are given in table 1 as the mean±standard deviation from at least three determinations. Ligand-induced alterations in DNA melting behaviour (ΔTm) are given by ΔTm=Tm(DNA+ligand)−Tm(DNA), where the Tm value determined for free CT-DNA is 67.82±0.06° C. (averaged from >90 runs). All PBD compounds were dissolved in HPLC-grade MeOH to give working solutions containing ≦0.6% v/v MeOH; Tm results were corrected for the effects of MeOH co-solvent by using a linear correction term.
The above method was also carried out on the compounds of example 2, with all compounds being incubated for up to 72 hours.

[2] = tested on: 170 bp sequence of the human Topo-IIa promoter; assay: DNase I footprinting on Topo-IIa promoter (ICB1, ICB2 sites); assay type: binding; settings: for Concentration at which DNA binding is observed, ICB1: ICB1 site; for Concentration at which DNA binding is observed, ICB2: ICB2 site
Procedure: In a similar manner to Example 4, the affinity and sequence selectivity of certain compounds of examples 1 and 2 was evaluated by standard DNA footprinting on a 170 bp sequence of the human Topo-IIa promoter, in accordance with the technique described in Martin, C., et al.
Selected results are shown in FIG. 9, wherein the concentrations of the lanes were 0, 1.6, 8, 40, 200, 1000, 5000 and 25000 nM in each case.
The footprinting results allowed the identification of compounds that could potentially disrupt transcription factor binding at the ICB1 and ICB2 sites. […] These compounds are detailed below in table 3, showing the concentrations (μM) at which the PBD-heterocycle conjugates bind at ICB1 and ICB2.

[3] = tested on: NF-Y binding at ICB2 of Topoisomerase IIα promoter; assay: NF-Y gel shift assay (EMSA) at ICB2

| SMILES | Induced ΔTm after incubation 0 hours [1] [°C] | Induced ΔTm after incubation 4 hours [1] [°C] | Induced ΔTm after incubation 18 hours [1] [°C] | Induced ΔTm after incubation 72 hours [1] [°C] | Concentration at which DNA binding is observed, ICB1 [2] [µM] | Concentration at which DNA binding is observed, ICB2 [2] [µM] | Lowest concentration at which NF-Y binding inhibition was observed [3] [µM] |
| --- | --- | --- | --- | --- | --- | --- | --- |
| COC(=O)c1cc(NC(=O)c2csc(NC(=O)CCCOc3cc4c(cc3OC)C(=O)N3CCC[C@H]3C=N4)n2)cn1C [Compound 55] | 14.5 | 15.2 | 15.8 | 16.1 |  |  |  |
| COC(=O)c1cc(NC(=O)c2nc(NC(=O)CCCOc3cc4c(cc3OC)C(=O)N3CCC[C@H]3C=N4)cn2C)cn1C [Compound 57, (11aS) Methyl 4-({4-[4-(7-Methoxy-5-oxo-2,3,5,11a-tetrahydro-5H-pyrrolo[2,1-c][1,4]benzodiazepine-8-yloxy)-butyrylamino]-1-methyl-1H-imidazole-2-carbonyl}-amino)-1-methyl-1H-pyrrole-2-carboxylate] | 2.8 | 3.0 | 3.1 | 3.2 |  |  |  |
| CCOC(=O)c1nc(NC(=O)c2nc(NC(=O)CCCOc3cc4c(cc3OC)C(=O)N3CCC[C@H]3C=N4)cn2C)cn1C [Compound 59, (11aS) Ethyl 4-({4-[4-(7-Methoxy-5-oxo-2,3,5,11a-tetrahydro-5H-pyrrolo[2,1-c][1,4]benzodiazepine-8-yloxy)-butyrylamino]-1-methyl-1H-imidazole-2-carbonyl}-amino)-1-methyl-1H-imidazole-2-carboxylate] | 10.3 | 10.9 | 11.4 | 11.4 |  |  |  |
| CCOC(=O)c1csc(NC(=O)c2csc(NC(=O)CCCOc3cc4c(cc3OC)C(=O)N3CCC[C@H]3C=N4)n2)n1 [Compound 61, (11aS) Ethyl 2-({2-[4-(7-Methoxy-5-oxo-2,3,5,11a-tetrahydro-5H-pyrrolo[2,1-c][1,4]benzodiazepine-8-yloxy)-butyrylamino]-thiazole-4-carbonyl}-amino)-thiazole-4-carboxylate] | 7.7 | 8.0 | 8.3 | 8.4 |  |  |  |
| CCOC(=O)c1csc(NC(=O)c2cc(NC(=O)CCCOc3cc4c(cc3OC)C(=O)N3CCC[C@H]3C=N4)cn2C)n1 [Compound 63, (11aS) Ethyl 2-({4-[4-(7-Methoxy-5-oxo-2,3,5,11a-tetrahydro-5H-pyrrolo[2,1-c][1,4]benzodiazepine-8-yloxy)-butyrylamino]-1-methyl-1H-pyrrole-2-carbonyl}-amino)-thiazole-4-carboxylate] | 9.3 | 9.6 | 10.2 | 10.5 |  |  |  |
| CCOC(=O)c1nc(NC(=O)c2cc(NC(=O)CCCOc3cc4c(cc3OC)C(=O)N3CCC[C@H]3C=N4)cn2C)cn1C [Compound 65, (11aS) Ethyl 4-({4-[4-(7-Methoxy-5-oxo-2,3,5,11a-tetrahydro-5H-pyrrolo[2,1-c][1,4]benzodiazepine-8-yloxy)-butyrylamino]-1-methyl-1H-pyrrole-2-carbonyl}-amino)-1-methyl-1H-imidazole-2-carboxylate] | 10.0 | 10.7 | 11.2 | 11.3 |  |  |  |
| COC(=O)c1cc(NC(=O)c2nc(NC(=O)c3cc(NC(=O)CCCOc4cc5c(cc4OC)C(=O)N4CCC[C@H]4C=N5)cn3C)cn2C)cn1C [Compound 71] | 15.5 | 16.0 | 16.9 | 17.2 | 1 | 5 | 10 |
| COC(=O)c1cc(NC(=O)c2csc(NC(=O)c3cc(NC(=O)CCCOc4cc5c(cc4OC)C(=O)N4CCC[C@H]4C=N5)cn3C)n2)cn1C [Compound 73] | 18.5 | 19.9 | 20.7 | 20.9 | 5 | 1 | 10 |
| COC(=O)c1cc(NC(=O)c2nc(NC(=O)c3nc(NC(=O)CCCOc4cc5c(cc4OC)C(=O)N4CCC[C@H]4C=N5)cn3C)cn2C)cn1C [Compound 75] | 14.3 | 15.0 | 15.4 | 15.6 |  |  |  |
| CCOC(=O)c1nc(NC(=O)c2nc(NC(=O)c3nc(NC(=O)CCCOc4cc5c(cc4OC)C(=O)N4CCC[C@H]4C=N5)cn3C)cn2C)cn1C [Compound 77] | 11.0 | 11.7 | 12.0 | 12.1 |  |  | 50 |
| CCOC(=O)c1nc(NC(=O)c2cc(NC(=O)c3cc(NC(=O)CCCOc4cc5c(cc4OC)C(=O)N4CCC[C@H]4C=N5)cn3C)cn2C)cn1C [Compound 79] | 13.9 | 14.8 | 15.2 | 15.5 |  |  |  |
| CCOC(=O)c1nc(NC(=O)c2cc(NC(=O)c3nc(NC(=O)CCCOc4cc5c(cc4OC)C(=O)N4CCC[C@H]4C=N5)cn3C)cn2C)cn1C [Compound 81] | 14.9 | 15.7 | 16.2 | 16.4 |  |  |  |
| CCOC(=O)c1csc(NC(=O)c2csc(NC(=O)c3csc(NC(=O)CCCOc4cc5c(cc4OC)C(=O)N4CCC[C@H]4C=N5)n3)n2)n1 [Compound 83] | 10.0 | 10.7 | 10.9 | 11.0 |  |  |  |
| CCOC(=O)c1csc(NC(=O)c2csc(NC(=O)c3cc(NC(=O)CCCOc4cc5c(cc4OC)C(=O)N4CCC[C@H]4C=N5)cn3C)n2)n1 [Compound 85] | 7.5 | 8.0 | 8.4 | 8.4 |  |  |  |
| CCOC(=O)c1csc(NC(=O)c2cc(NC(=O)c3csc(NC(=O)CCCOc4cc5c(cc4OC)C(=O)N4CCC[C@H]4C=N5)n3)cn2C)n1 [Compound 87] | 6.4 | 6.8 | 7.1 | 7.3 |  |  |  |
| CCOC(=O)c1csc(NC(=O)c2cc(NC(=O)c3cc(NC(=O)CCCOc4cc5c(cc4OC)C(=O)N4CCC[C@H]4C=N5)cn3C)cn2C)n1 [Compound 89] | 16.8 | 17.7 | 18.6 | 18.8 |  |  |  |
